This passage reports AC50 results from EP4721737A1, “USE OF PHARMACEUTICAL COMPOSITION COMPRISING COMPOUND HAVING BIS(AZANYLYLIDENE) SULFONYL STRUCTURE FOR TREATING ANEMIA-RELATED DISEASES” (Scinnohub Pharmaceutical Co., Ltd., priority 2023, dated 2024).

Experiment [1] concerns the target T1, PKR in ex vivo red blood cells from healthy individuals (Homo sapiens, UniProt P30613).
T1 construct: endogenous in cells; host or cells: human red blood cells isolated from fresh peripheral blood of healthy individuals
The experiment in a line: ex vivo pyruvate kinase (PKR) activity experiment, red blood cells of healthy individuals. It is filed as cell-based. Conditions: 3 hours co-cultivation. In a few lines: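 Washed, Percoll-purified human RBCs at 1 × 10^7 cells/mL were exposed to compound (final 1–3000 nM, 1% DMSO) for 3 h at 37°C, then lysed. PKR activity in lysate was followed kinetically by fluorescence at 540/590 nm over 1 h. Slope versus 1% DMSO control gave % activation; AC50 from variable-slope fit.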

The next experiment has as its target recombinant human PKR (Homo sapiens, UniProt P30613). The experiment in a line: pyruvate kinase (PKR) activity test, activation of recombinant enzyme (fluorescence kit). The class given is biochemical. How it is done:
To test the activation effect of the compound of the present disclosure on recombinant human PKR.
3.1 A recombinant human PKR enzyme solution was prepared at a concentration of 60 ng/well (a 20 µL reaction system), and 5 µL of the solution was added into each well of a black transparent bottom 384-well plate.
3.2 Compound solutions were prepared at different concentrations, with the final concentrations of 1000/300/100 nM (containing 1% DMSO). Each 5 µL of the compound solution was added into the plate in step 3.1 and mixed well. The plate was incubated at room temperature for 10 min.
3.3 A reaction system was prepared according to the instructions of a kit (as shown in the table below), and 10 µL of the reaction system was added into each well of the 384-well plate, and mixed uniformly with the solution in step 3.2.
3.4 The 384-well plate was placed on a microplate reader to detect the fluorescence value at 540/590 nm, where the value was read every 2 minutes and the detection was conducted continuously for 1 hour.
3.5 The Slope value within the detection time was calculated, and the 1% DMSO well was used as a control well to calculate a compound activation rate. Activation rate % = (Slopeofcompoundwell/Slopeofcontrolwell) × 100% [formula]
With the log value of the compound concentration as the X axis and the percentage activation rate as the Y axis, a dose-effect curve was fitted with the log(agonist) vs. response-variable slope of the analysis software GraphPad Prism 5, and the AC50 value of the activity of each compound against PKR was obtained. Y = min + (max−min)/(1+10^(∧)((LogAC50−X)×Hillslope)). [formula]

T1 sequence (P30613 whole entry): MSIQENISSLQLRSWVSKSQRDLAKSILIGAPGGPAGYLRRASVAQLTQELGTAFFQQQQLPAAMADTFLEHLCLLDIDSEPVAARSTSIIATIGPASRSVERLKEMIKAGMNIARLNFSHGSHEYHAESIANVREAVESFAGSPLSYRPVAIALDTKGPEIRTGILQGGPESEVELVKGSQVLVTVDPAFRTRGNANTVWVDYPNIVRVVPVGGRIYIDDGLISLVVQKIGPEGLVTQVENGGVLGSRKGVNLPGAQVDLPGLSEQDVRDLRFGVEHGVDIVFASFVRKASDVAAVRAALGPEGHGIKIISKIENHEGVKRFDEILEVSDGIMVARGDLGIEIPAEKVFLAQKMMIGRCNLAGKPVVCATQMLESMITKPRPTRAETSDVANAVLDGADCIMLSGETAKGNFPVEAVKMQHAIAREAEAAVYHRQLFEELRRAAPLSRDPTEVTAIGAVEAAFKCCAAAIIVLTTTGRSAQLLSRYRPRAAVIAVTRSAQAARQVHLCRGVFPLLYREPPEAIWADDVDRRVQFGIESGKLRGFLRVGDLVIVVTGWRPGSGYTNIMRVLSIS
Chain of recombinant human PKR (P30613 whole entry): as above

Regarding `[2H]C([2H])([2H])Oc1ccc(S(=O)(=O)N2CC(=C3CN(C(=O)[C@H](CO)c4ccccc4)C3)C2)nc1` [Compound 91, (S)-3-hydroxy-1-(1'-((5-(methoxy-d3)pyridin-2-yl)sulfonyl)-1',4'-dihydro-2H,2'H-[3,3'-diazetidinylidene]-1(4H)-yl)-2-phenylpropan-1-one], the AC50 (in experiment [1]; on recombinant human PKR) was less than 100 nM in each case.

Take `O=C(C(O)c1ccccc1)N1CC(=C2CN(S(=O)(=O)c3ccc(OC(F)F)cc3)C2)C1` (centres unmarked) [Compound 8, 1-(1'-((4-(difluoromethoxy)phenyl)sulfonyl)-1',4'-dihydro-2H,2'H-[3,3'-diazetidinylidene]-1(4H)-yl)-2-hydroxy-2-phenylethan-1-one]: the concentration at half-maximal activity (AC50) in experiment [1] is less than 100 nM; at recombinant human PKR, 300 to 1000 nM.

Take `O=C(C(CF)c1ccccc1)N1CC(=C2CN(S(=O)(=O)c3ccccn3)C2)C1` (centres unmarked) [Compound 73, 3-fluoro-2-phenyl-1-(1'-(pyridin-2-ylsulfonyl)-1',4'-dihydro-2H,2'H-[3,3'-diazetidinylidene]-1(4H)-yl)propan-1-one]: the AC50 (in experiment [1]; at recombinant human PKR) was 101 to 300 nM in each case.

As to `O=C(C(CO)c1ccc2c(c1)NCCO2)N1CC(=C2CN(S(=O)(=O)c3ccccn3)C2)C1` (centres unmarked) [Compound 79, 2-(3,4-dihydro-2H-benzo[b][1,4]oxazin-6-yl)-3-hydroxy-1-(1'-(pyridin-2-ylsulfonyl)-1',4'-dihydro-2 H,2'H-[3,3'-diazetidinylidene]-1(4H)-yl)propan-1-one], the AC50 in experiment [1] is 101 to 300 nM; at recombinant human PKR, less than 100 nM.

Regarding `O=C(N1CC(=C2CN(S(=O)(=O)c3ccc4ncsc4c3)C2)C1)C1(c2ccccc2)CCOCC1` [Compound 29, (1'-(benzo[d]thiazol-6-ylsulfonyl)-1',4'-dihydro-2H,2'H-[3.3'-diazetidinylidene]-1(4H)-yl)(4-phenyltetrahydro-2H-pyran-4-yl)methanone], the AC50 (in experiment [1]; on recombinant human PKR) was less than 100 nM in each case.

As for `O=C(c1c[nH]c2ccccc12)N1CC(=C2CN(S(=O)(=O)c3ccccn3)C2)C1` [Compound 56, (1H-indol-3-yl)(1'-(pyridin-2-ylsulfonyl)-1',4'-dihydro-2H,2'H-[3,3'-diazetidinylidene]-1(4H)-yl)met hanone], the AC50 (in experiment [1]; at recombinant human PKR) was 300 to 1000 nM in each case.

For `O=C(C(CO)c1ccc(F)cc1F)N1CC(=C2CN(S(=O)(=O)c3ccccn3)C2)C1` (centres unmarked) [Compound 74, 2-(2,4-difluorophenyl)-3-hydroxy-1-(1'-(pyridin-2-ylsulfonyl)-1',4'-dihydro-2H,2'H-[3,3'-diazetidinylidene]-1(4H)-yl)propan-1-one], the AC50 (in experiment [1]; at recombinant human PKR) was less than 100 nM in each case.

On to `O=C(C(CO)c1ccc(C(F)(F)F)cc1)N1CC(=C2CN(S(=O)(=O)c3ccccn3)C2)C1` (centres unmarked) [Compound 78, 3-hydroxy-1-(1'-(pyridin-2-ylsulfonyl)-1',4'-dihydro-2H,2'H-[3,3'-diazetidinylidene]-1(4H)-yl)-2-(4-(trifluoromethyl)phenyl)propan-1-one], for which the AC50 (in experiment [1]; on recombinant human PKR) was 300 to 1000 nM in each case.

Regarding `O=C([C@H](CO)c1ccccc1)N1CC(=C2CN(S(=O)(=O)c3ccc(-c4ncco4)c(F)c3)C2)C1` [Compound 27, (S)-1-(1'-((3-fluoro-4-(oxazol-2-yl)phenyl)sulfonyl)-1',4'-dihydro-2H,2'H-[3,3'-diazetidinylidene]-1(4 H)-yl)-3-hydroxy-2-phenylpropan-1-one], the concentration at half-maximal activity (AC50) (in experiment [1]; at recombinant human PKR) was 300 to 1000 nM each time.

As to `O=C(N1CC(=C2CN(S(=O)(=O)c3ccc(OC(F)F)cc3)C2)C1)C1(c2ccccc2)CCOCC1` [Compound 14, (1'-((4-(difluoromethoxy)phenyl)sulfonyl)-1',4'-dihydro-2H,2'H-[3,3'-diazetidinylidene]-1(4H)-yl)(4-phenyltetrahydro-2H-pyran-4-yl)methanone], the AC50 (in experiment [1]; on recombinant human PKR) was 101 to 300 nM each time.

By AC50 is commonly meant the concentration giving half of the maximal activity seen.
